Patent publication US9676820B2, “Method for inhibiting proliferation of high LIX1L-expressing tumor cell, and tumor cell proliferation-inhibiting peptide” (National University Corporation Hamamatsu University School …, priority 2013, dated 2017)

What was measured:
K562 strain = experiment: Viable cell counts (Trypan blue staining), K562 strain; assay type: cell-based; settings: 5 μM peptide, vs untreated
Experimental: Specifically, cells plated such that the density thereof became 1×10^4 cells/3.5 cm well for one plate (6 wells/plate) for each cell strain were cultured for one night in a culture solution having the same composition as those of the culture solutions described in the reference examples. After culturing of 1 well out of the 6 wells was completed, Trypan blue staining was performed on the 1 well, and viable cell counts were counted. The remaining 5 wells were cultured after exchanging the culture solution with a liquid mixture of a Lipofectamine (registered trademark) reagent (12.5 μL/well) and a culture solution (2 mL/well) of which the shRNA concentration became 2.5 μg/well. Then, Trypan blue staining was performed on 1 well 24 hours after the exchange of a culture medium, 1 well 48 hours after the exchange of a culture medium, and the remaining 1 well 72 hours after the exchange of a culture medium, and the viable cell counts were counted. As a control, the viable cell counts were measured (untreated) by performing the culturing similarly to the above except that a culture medium was exchanged with a culture solution to which no shRNA was added.
Specifically, the viable cell counts were measured after culturing the cells similarly to Example 1 except that a 5 μM culture solution containing a control peptide, a peptide 1, or a peptide 2 was used instead of the culture solution (2 mL/well) of which the shRNA concentration was 2.5 μg/well. The viable cell counts were measured (untreated) by performing the culturing similarly to Example 1 using a culture solution containing no peptide 2, as a control.

MKN45 cell strains = experiment: Cancer mouse model transplanted with MKN45 cell strain; assay type: in vivo; settings: nude mice with MKN45 transplant
Experimental: Rearing of 10 nude male mice (BALB/cAJcl-nu/nu, purchased from CLEA Japan, Inc.) at the age of 7 weeks was started, and MKN45 cell strains separately cultured were transplanted into the mice by being subcutaneously injected thereinto on day 31. The day on which the transplantation was performed was set as day 0, the mice were divided into two groups (peptide 1-administered group and control peptide-administered group) of 5 mice on day 14 of the transplantation, 4 mice were selected among the 5 mice from each group, and the peptide 1 or the control peptide was administered. The remaining one mouse was set as a spare. In the peptide 1-administered group, 100 μL of a 30 μM peptide 1 solution (solution prepared by adding a methylcellulose solution to the solution after the peptide 1 was dissolved in PBS (−)) was subcutaneously injected into a tumor site (site into which the MKN45 cell strain was injected) 4 times every 3 days. In the control peptide-administered group, 100 μL of a 30 μM control peptide solution (solution prepared by adding a methylcellulose solution to the solution after the control peptide was dissolved in PBS (−)) was subcutaneously injected into a tumor site 4 times on the same days as those in the peptide 1-administered group.
The results in which the points of time (days) at which a peptide solution was administered to each mouse and the volume (mm^3) of a tumor site were temporally measured are shown in FIG. 21. For the volume of the tumor site, the width and the length of the tumor site determined from the appearance of the mouse were measured and calculated using the following formula. [Volume(mm^3) of Tumor Site]=([Width(mm) of Tumor Site]^2×[Length(mm) of Tumor Site])/2
The “width of tumor site” referred herein means a maximum width of a portion in which the skin has risen due to the tumor and the “length of tumor site” means a maximum length of a portion in which the skin has risen due to the tumor.

293 FLG/LIX1L = experiment: MTT assay, 293 FLG/LIX1L cells; assay type: cell-based
Experimental: Specifically, first, cells plated in a 96-well microplate such that the density thereof became 5×10^3 cells/well were cultured for one night in a culture solution having the same composition as those in the reference examples. […] After the culturing, an MTT-containing PBS solution was added to the culture solution, and the mixture was incubated for 4 hours. Then, formazan which was generated by putting 100 μL of isopropanol (containing 34 (v/v) % of hydrochloric acid) into each of the wells was dissolved. The absorbance of each of the wells of the microplate at 570 nm was measured using a microplate reader. As controls, culturing was performed in the same manner except that no peptide was added to the strains, an MTT assay was performed thereon, and the absorbance at 570 nm was measured (untreated).
In the method for measuring the viable cell counts, cells were cultured for 3 days similarly to Example 1 except that a 25 μM (10 μM for an HL-60 strain, a K562 strain, and a U937 strain) culture solution containing a control peptide or a peptide 1 was used, and the viable cell counts were measured. As a comparison, culturing was performed similarly to the above using a culture solution containing no peptide, and the viable cell counts were measured (untreated).
In addition, in the method for performing an MTT assay, cells were cultured for 72 hours similarly to Example 2 except that a peptide to be added to a strain was set to a control peptide or a peptide 1 at 25 μM (10 μM for an HL-60 strain, a K562 strain, and a U937 strain), an MTT assay was performed thereon, and the absorbance at 570 nm was measured. As a comparison, culturing was performed similarly to the above using a culture solution containing no peptide, and the MTT assay was performed thereon (untreated).
Specifically, the cells were cultured for 72 hours similarly to Example 2 except that a peptide to be added to a cell was set to a peptide 1, 2, 5, or 6, MTT assays were performed thereon, and the absorbance at 570 nm was measured. As a comparison, culturing was performed similarly to the above using a culture solution containing no peptide, and the MTT assay was performed thereon (untreated).
Specifically, the cells were cultured for 72 hours similarly to Example 2 except that peptides to be added to cell strains were set to peptides 7 to 14, MTT assays were performed thereon, and the absorbance at 570 nm was measured. […]
Specifically, the cells were cultured for 72 hours similarly to Example 2 except that a peptide to be added to a cell strain was set to a peptide 15 or 16, an MTT assay was performed thereon, and the absorbance at 570 nm was measured. […]

KATO-III strain = experiment: MTT assay, KATO-III strain; assay type: cell-based; settings: MTT assay, 72 hours
Experimental: Specifically, first, cells plated in a 96-well microplate such that the density thereof became 5×10^3 cells/well were cultured for one night in a culture solution having the same composition as those in the reference examples. Thereafter, the culture solution was exchanged with 100 μL of a culture solution of which the concentration of peptides is 0 μM to 100 μM for culturing for 72 hours. After the culturing, an MTT-containing PBS solution was added to the culture solution, and the mixture was incubated for 4 hours. Then, formazan which was generated by putting 100 μL of isopropanol (containing 34 (v/v) % of hydrochloric acid) into each of the wells was dissolved. The absorbance of each of the wells of the microplate at 570 nm was measured using a microplate reader. As controls, culturing was performed in the same manner except that no peptide was added to the strains, an MTT assay was performed thereon, and the absorbance at 570 nm was measured (untreated).

CC(C)[C@H](NC(=O)[C@H](Cc1ccc(O)cc1)NC(=O)[C@H](CS)NC(=O)[C@@H](NC(=O)[C@H](Cc1ccc(O)cc1)NC(=O)[C@@H]1CCCN1C(=O)[C@@H]1CCCN1C(=O)[C@H](CO)NC(=O)[C@H](CC(N)=O)NC(=O)[C@H](CO)NC(=O)[C@@H]1CCCN1C(=O)CCCCCNC(=O)[C@H](CCCNC(=N)N)NC(=O)[C@H](CCCNC(=N)N)NC(=O)[C@H](CCCNC(=N)N)NC(=O)[C@H](CCC(N)=O)NC(=O)[C@H](CCCNC(=N)N)NC(=O)[C@H](CCCNC(=N)N)NC(=O)[C@H](CCCCN)NC(=O)[C@H](CCCCN)NC(=O)[C@H](CCCNC(=N)N)NC(=O)CNC(=O)[C@@H](N)Cc1ccc(O)cc1)C(C)C)C(N)=O [peptide 1, YGRKKRRQRRR-X-PSNSPPYVCYV-NH2]
viable cell counts (K562 strain; after 72 hours): very small
viable cell counts (K562 strain; after culturing for 24 hours): decreased
body weight (MKN45 cell strains; 100 μL of 30 μM peptide solution 4 times, vs spare mice given nothing): no particularly significant change
volume (size) of the tumor site (MKN45 cell strains; 100 μL of 30 μM peptide solution subcutaneously into tumor site 4 times every 3 days from day 14): rarely changed
cell proliferation (MTT assay, absorbance at 570 nm) (293 FLG/LIX1L; 72 hours, peptide concentrations up to 250 μM): inhibited
cell proliferation (viable cell counts and MTT assay) (293 FLG/LIX1L; peptide 25 μM, 3 days / 72 hours): inhibited
concentration at which a dominant effect of inhibiting the cell proliferation was recognized (KATO-III strain): greater than or equal to 25 μM
